Data from patent publication US20260132123A1, “ABAD INHIBITOR COMPOUNDS” (UNIVERSITY COURT OF THE UNIVERSITY OF ST ANDREWS, priority 2021, published 2026).

Molecular target: T1, 17β-HSD10 (Homo sapiens, UniProt Q99714)
T1 construct: Histev (histidine tag with TEV site) (N, cleaved yes); made in house; host or cells: E. coli BL21-CodonPlus
T1 sequence (Q99714 1-261): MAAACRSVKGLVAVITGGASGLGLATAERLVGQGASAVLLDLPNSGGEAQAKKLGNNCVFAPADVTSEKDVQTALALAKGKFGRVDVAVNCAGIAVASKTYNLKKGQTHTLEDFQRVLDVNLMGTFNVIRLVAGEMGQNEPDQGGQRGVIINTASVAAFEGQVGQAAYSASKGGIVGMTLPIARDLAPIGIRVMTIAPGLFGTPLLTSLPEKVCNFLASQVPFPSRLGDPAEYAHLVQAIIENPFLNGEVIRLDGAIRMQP
Test: 17β-HSD10 (ABAD) enzyme inhibition assay, NADH oxidation read at 340 nm (primary screen and dose response)
Format: biochemical
Conditions: for EC50 / Max. Effect (%) / Hill Slope / Max. Fit / Min. Fit: recombinant 17βHSD10 enzyme assay; for Hill Slope / Max. Fit / Min. Fit: curve fit
Experimental: Cell pellets of E. coli BL21-CodonPlus cells containing Histev-17β-HSD10 protein were re-suspended for 30 min, 4° C., in lysis buffer (20 mM NaH2PO4, 30 mM imidazole, 500 mM NaCl, 10% (v/v) glycerol, pH 7.5) with the addition of complete ethylenediaminetetraacetic acid (EDTA)-free protease inhibitor tablets (Roche), lysozyme (1 mg/mL), deoxyribonuclease (DNase) (20 μg/mL) and Triton X-100 (0.1% (v/v)). Cells were lysed by passage through a cell disruptor at 30 kPSI (Constant Systems Ltd) and the lysate was cleared by centrifugation (Sorvall Evolution RC, rotor S5-34 55-34 angle, 20500 rpm, 30 min, 4° C.). Cleared lysate was filtered (0.45 μm membrane; Whatman) then applied to a Ni-nitrilotriacetic acid (NTA) (GE Healthcare) column pre-washed with lysis buffer and protein eluted with 300 mM imidazole buffer (20 mM NaH2PO4, 300 mM imidazole, 500 mM NaCl, 10% (v/v) glycerol, pH 7.5). […] Protein digestion and dialysis was carried out at 4° C. for 16 h.
Complete digestion was firstly checked by sodium dodecyl sulfate-polyacrylamide gel electrophoresis (SDS-PAGE), then fully digested protein was passed over a second Ni-column and the flow-through, containing 17β-HSD10 protein, was concentrated using a Vivaspin column (10 kDa MWCO, GE Healthcare) to ˜7 mL before final purification using gel filtration to remove imidazole (Hi-Load 16/60 Superdex 75 prep grade column, GE Healthcare, flow rate 1.5 mL/min). Protein was eluted in gel filtration buffer (10 mM trisaminomethane (Tris-HCl), 150 mM NaCl, 10% glycerol, pH 7.5) and concentrated (Vivaspin column (10 kDa molecular weight cut off (MWCO), GE Healthcare)) to 10 mg/mL. Aliquots (10 μL) were taken and flash frozen in liquid nitrogen before final storage at −80° C.
The assay buffer used contains: 10 mM Tris. HCl (pH 7.4), 150 mM NaCl, 1 mM DTT, 0.005% Tween (polysorbate 20) and 0.01% bovine serum albumin (BSA). As indicated for some experiments the assay buffer was supplemented with 100 units/ml bovine liver catalase. All experiments were conducted in clear bottom 384-well or 1536-well low volume microplates (Corning) with a final assay volume of 20 μL and the reaction progress was monitored by oxidation of NADH as determined by reduction in absorbance at 340 nm read on the EnVision plate reader (PerkinElmer).
For primary screening an endpoint assay format was adopted in which an Echo acoustic liquid dispenser (Labcyte) was used to transfer 20 nL of either reference standard, dimethylsulfoxide (DMSO) control ([…] final assay concentration (FAC)) or test compounds (10 μM FAC) to the assay plate. 10 μL of 17β-HSD10 enzyme in assay buffer (2.5 nM, FAC) was then added to the plates using the Preddator liquid handling robot (Redd and Whyte) and plates were incubated at room temperature for 15 minutes. 10 μL of substrate mixture (100 μM acetoacetyl-CoA and 100 μM NADH, FAC) was added with the Preddator. To start the reaction and the plates were left to incubate for 35 minutes at room temperature before the absorbance at 340 nm was read on the EnVision plate reader (PerkinElmer). For kinetic assay format and dose response follow up experiments the same protocol was adopted but the absorbance at 340 nm was monitored constantly for 45 minutes from immediately after the reaction was started.

| 17β-HSD10 / ABAD activity in words (SAR discussion) | EC50 [µM] | Max. Effect (%) | Hill Slope | Max. Fit | Min. Fit | Structure (SMILES) | ABAD plC50 (primary screening, resynthesized HTS hit compounds) |
| --- | --- | --- | --- | --- | --- | --- | --- |
| potency was abolished | > 20 | 0 |  |  |  | O=C(c1ccccc1F)N1CCCc2ccc(NCc3cnc[nH]3)cc21 [ESC1002081, (2-fluorophenyl)-[7-(1H-imidazol-5-ylmethylamino)-3,4-dihydro-2H-quinolin-1-yl]methanone] |  |
|  | 1.2 | 90 | 1 | 95 | −5 | CC(C)CN(C(=O)c1ccc(Cl)s1)c1cccc(N(C)Cc2c[nH]cn2)c1 [ESC1002460, 5-chloro-N-[3-[1H-imidazol-4-ylmethyl(methyl)amino]phenyl]-N-isobutyl-thiophene-2-carboxamide] |  |
|  | > 20 | −2 |  |  |  | CC(C)CN(C(=O)c1ccccc1F)c1cccc(-n2ccnc2)c1 [ESC1002765] |  |
|  | 0.186 | 97 | 1.6 | 95 | 11 | COc1cccc(-c2ccccc2[C@@H]2CCCN2C(=O)c2sccc2C)c1 (single isomer, unassigned) [ESC1002421] |  |
| significantly less active | 6.03 | 65 | 1.2 | 80 | −1 | COc1cccc(-c2ccccc2[C@H]2CCCN2C(=O)c2scnc2C)c1 [ESC1002430] |  |
|  | > 20 | 46 |  |  |  | Cc1cc(CN(C(=O)c2ccccc2F)c2cccc(N(C)Cc3c[nH]cn3)c2)no1 [ESC1002516, 2-fluoro-N-[3-[1H-imidazol-4-ylmethyl(methyl)amino]phenyl]-N-[(5-methylisoxazol-3-yl)methyl]benzamide] |  |
|  | > 20 | 20.5 |  |  |  | O=C(c1nc(Br)no1)N1CCC[C@H]1c1ccccc1 [S1−T6] |  |
|  | 10.7 | 70 | 1.1 | 100 | −1 | O=C(c1sccc1Cl)N1CCC[C@H]1c1ccccc1-c1cc(O)ccc1F (single isomer, unassigned) [ESC1002843] |  |
|  | 4.47 | 75 | 1.2 | 87 | −2 | CC(C)CN(C(=O)c1ccccc1F)c1cccc(N(C)Cc2c[nH]nn2)c1 [ESC1002675] |  |
|  | 11 | 64 | 1 | 100 | −6 | CC(C)CN(C(=O)c1ccccc1F)c1cccc(N(C)Cc2cn[nH]c2I)c1 [ESC1002687] |  |
|  | 0.631 | 97 | 1 | 101 | −1 | CC(C)N(C(=O)c1ccccc1F)c1cccc(N(C)Cc2cnc[nH]2)c1 [ESC1002078, 2-fluoro-N-[3-[1H-imidazol-5-ylmethyl(methyl)amino]phenyl]-N-isopropyl-benzamide] |  |
|  | 0.288 | 99 | 1.2 | 96 | 0 | O=C(c1sccc1Cl)N1CCC[C@H]1c1ccccc1-c1ccc2[nH]ncc2c1 (racemic) [ESC1002701] |  |
|  | 0.832 | 93 | 1.2 | 94 | −4 | CCc1ccc(C(=O)N(CC(C)C)c2cccc(N(C)Cc3c[nH]cn3)c2)cc1 [ESC1002459, 4-ethyl-N-[3-[1H-imidazol-4-ylmethyl(methyl)amino]phenyl]-N-isobutyl-benzamide] |  |
|  | 4.17 | 85 | 1.1 | 96 | −4 | O=C(c1sccc1Cl)N1CCC[C@H]1c1ccccc1-c1ccc(F)c(O)c1 (single isomer, unassigned) [ESC1002839] |  |
|  | > 20 | 15 |  |  |  | CC(C)CN(CC(C)C)c1cccc(N(C)Cc2cnc[nH]2)c1 [ESC1002025] |  |
|  | > 20 | 4 |  |  |  | CC(=O)NCCCN(C)c1cccc(N(CC(C)C)C(=O)c2ccccc2F)c1 [ESC1002507] |  |
|  | > 20 | 6.4 |  |  |  | O=C(c1ncc[nH]1)N1CCC[C@H]1c1ccccc1 [S1−T2, 2-{[(2S)-2-phenylpyrrolidin-1-yl]carbonyl}-1H-imidazole] |  |
|  | > 20 | 16 |  |  |  | COc1cccc(-c2ccccc2[C@H]2CCCN2C(=O)c2cc(C)cs2)c1 [ESC1002428] |  |
|  | 0.457 | 96 | 1.1 | 97 | −8 | CC(C)CN(C(=O)c1ccc(F)cc1F)c1cccc(N(C)Cc2c[nH]cn2)c1 [ESC1002454, 2,4-difluoro-N-[3-[1H-imidazol-4-ylmethyl(methyl)amino]phenyl]-N-isobutyl-benzamide] |  |
|  | 18.2 | 52 | 1 | 95 | −1 | Cc1ccsc1C(=O)N1CCC[C@@H]1c1ccccc1-c1cnn(C2CCNCC2)c1 [ESC1002466] |  |
|  | > 20 | 24 |  |  |  | COc1cccc(-c2ccccc2[C@@H]2CCCN2C(=O)c2[nH]ncc2Cl)c1 (single isomer, unassigned) [ESC1002756] |  |
|  | > 20 | 12 |  |  |  | Cc1ccsc1C(=O)N1CCC[C@H]1c1ccccc1-c1cccc(Cl)c1 (single isomer, unassigned) [ESC1002768] |  |
|  | 8.71 | 52 | 1.3 | 70 | −5 | CC(C)CN(C(=O)c1ccncn1)c1cccc(N(C)Cc2c[nH]cn2)c1 [ESC1002703] |  |
|  | > 20 | 14 |  |  |  | Cc1ccsc1C(=O)N1CCC[C@H]1c1ccccc1-c1ccccc1Cl (single isomer, unassigned) [ESC1002766] |  |
|  | > 20 | 22 |  |  |  | COc1cccc(-c2ccccc2[C@H]2CCCN2C(=O)c2ccc(C)s2)c1 [ESC1002426] |  |
|  | 7.41 | 59 | 1.1 | 71 | 1 | O=C(c1sccc1Cl)N1CCC[C@H]1c1ccccc1-c1cncnc1 (racemic) [ESC1002698] |  |
|  | > 20 | 27.9 |  |  |  | CCN(C(=O)C1CCCCN1C)c1cccc(N(C)Cc2cnc[nH]2)c1 (stereo not shown) [S2−T7, N-ethyl-N-[3-[1H-imidazol-5-ylmethyl(methyl)amino]phenyl]-1-methyl-piperidine-2-carboxamide] |  |
|  | 0.479 | 96 | 1.1 | 95 | −8 | COc1cccc(-c2ccccc2[C@H]2CCCN2C(=O)c2cccs2)c1 [ESC1002425] |  |

| Structure (SMILES) | 17β-HSD10 / ABAD activity in words (SAR discussion) | EC50 [µM] | Max. Effect (%) | Hill Slope | Max. Fit | Min. Fit | ABAD plC50 (primary screening, resynthesized HTS hit compounds) |
| --- | --- | --- | --- | --- | --- | --- | --- |
| COc1cccc(-c2ccccc2[C@H]2CCCN2C(=O)c2ccccc2C)c1 [ESC1002434] | not tolerated | > 20 | 20 |  |  |  |  |
| COc1cccc(C(=O)N(CC(C)C)c2cccc(N(C)Cc3cnc[nH]3)c2)c1 [ESC1002038, N-[3-[1H-imidazol-5-ylmethyl(methyl)amino]phenyl]-N-isobutyl-3-methoxy-benzamide] |  | 2 | 92 | 0.8 | 105 | −2 | 5.7 |
